Source: paper PMC8353886 (ACS Medicinal Chemistry Letters, 2021)

Key:
SARS-CoV-2 = details: in words; cited from earlier work
SARS-CoV-1 = details: cited from earlier work
MERS = details: cited from earlier work
[1] = system: SARS-CoV-2 Spike pseudotyped particle (PP); experiment: microbe, parasite or virus in culture; format: cell-based; details: Severe acute respiratory syndrome coronavirus 2, read-out: SARS-CoV-2 PP IC50

| Structure (SMILES) | inhibitory activity against SARS-CoV-2 in the PP entry assay (SARS-CoV-2) | inhibitory activity against SARS-CoV-1 in the PP entry assay (SARS-CoV-1) | inhibitory activity against MERS in the PP entry assay (MERS) | IC50 [1] [µM] |
| --- | --- | --- | --- | --- |
| CN1CCN(C(c2ccccc2)c2ccc(Cl)cc2)CC1 (stereo not shown) [CCZ, chlorcyclizine] | inhibitory activities | inhibitory activities | inhibitory activities |  |
| CN1[C@@H]2CC[C@H]1C[C@@H](OC(c1ccccc1)c1ccc(Cl)cc1)C2 (stereo partly shown) [Clobenztropine] |  |  |  | 12.6 |
